Measured values published in patent publication US5880145A, “Class of benzoporphyrin derivative photoactive compounds” (The University of British Columbia, priority 1997, dated 1999).
Like-named read-outs stand apart in the source and are kept apart here.

Experiments:
[1] = test system: Murine leukemia cells (L1210); test: Photosensitization of cells in vitro (broad spectrum light 9 j/cm^2; MTT cell viability); type: cell-based; settings: for IC50: Mus musculus, L1210, light or radiation study, 20 h, 1 hour incubation, light 9 j/cm^2, viability 20 hours later, read-out: LD50 (dose causing 50% cell kill)
Method: Murine leukemia cells (L1210) were incubated in suitable buffer with and without serum in various amounts of the drug B3 for 1 hour. After removal of the drug, the cells were exposed to broad spectrum light at 9 j/cm^2. Cell viability was determined 20 hours later by the MTT colorimetric assay. Results are presented in FIGS. 2A and 2B as % cell kill for cells exposed to light only.

L1210 cells [2] = test: Uptake of B3 by cells in vitro; type: cell-based, Murine; settings: 3 μg/ml, 10% serum
Method: Uptake of B3 by cells in vitro: L1210 cells (5×10^6 /vial) were incubated in the presence of 10% serum with B3 at 3 μg/ml for times up to 100 minutes. At various times during incubation, duplicate vials were pulled out and the cells, following washing, were lysed and the amount of B3 in the extract determined by fluorescence in the presence of 1% Triton X-100.

L1210 cells [3] = test: Release/retention of B3 by cells in vitro; type: cell-based, Murine; settings: after 1 hour incubation at 3 μg/ml; drug-free medium with 10% serum
Method: Release/retention of B3 by cells in vitro: L1210 cells were incubated for 1 hour with B3 at 3 μg/ml in the presence of 10% serum, then washed and placed in drug-free medium containing 10% serum. At various times duplicate aliquots were evaluated for cell content of B3 as described above.

[4] = Tissue distribution and clearance in vivo; settings: mice, intravenous 4 mg/kg
Method: Mice (normal, healthy and M1-tumor-bearing) were injected intravenously at 4 mg/kg with B3 formulated in aqueous solution containing DMSO. At various times post B3 administration, the animals were sacrificed and B3 content in various tissues was determined in tissue extracts by fluorescence as described above.

[5] = test system: M1 (rhabdomyosarcoma) tumor-bearing mice; test: Selectivity in vivo: biodistribution (tumor:tissue ratios)
Method: Mice (normal, healthy and M1-tumor-bearing) were injected intravenously at 4 mg/kg with B3 formulated in aqueous solution containing DMSO. At various times post B3 administration, the animals were sacrificed and B3 content in various tissues was determined in tissue extracts by fluorescence as described above. Biodistribution data of B3 (tumor:tissue ratios) obtained in M1 (rhabdomyosarcoma) tumor-bearing mice were also evaluated at various times. Within the first hour post intravenous administration of 4 mg/kg B3, tumor:tissue ratios for the muscle and skin were 1.5-2.0 and 3.1-3.9, respectively. Lymph nodes gave ratios of 0.7. […] Since this preferential accumulation was observed shortly after B3 administration, this photosensitizer can be activated with light shortly after its injection, which is convenient in clinical use.

[6] = within first hour post intravenous 4 mg/kg

In the case of `C=Cc1c(C)c2cc3nc(cc4[nH]c(cc5nc(cc1[nH]2)[C@@]1(C)C5=CC=C(C(=O)O)[C@H]1C(=O)OC)c(C)c4CCC(=O)OC)C(CCC(=O)OC)=C3C` (relative stereo) [Example B3], the IC50 ([1]; in the absence of 10% serum) is reported as 0.007 µg/mL, the IC50 ([1]; in the presence of 10% serum) is reported as 0.035 µg/mL and the “photosensitization of cells (in words)” value ([1]; with and without serum) is reported as “very potent photosensitizer of cells and maintains this property in the presence of serum”. The “time to reach maximum concentrations in cells (uptake)” value (L1210 cells [2]) was ≤ 20 min, the “cellular pharmacokinetics in vitro (in words)” value (L1210 cells [2]; uptake and release, L1210 cells) was “very rapid pharmacokinetics in vitro” and the “time after which release from cells is rapid and almost complete” value (L1210 cells [3]) was ~30 min. For the same compound, the “pharmacokinetics in vivo (in words)” value [4] was “very rapid pharmacokinetics in vivo”, the “time after which drug was cleared from tissues tested” value ([4]; aqueous solution containing DMSO) was “about 5 minutes” and the “accumulation in tumor and other rapidly proliferating tissues versus normal tissues (in words)” value ([5]; shortly after intravenous 4 mg/kg) was “preferential accumulation of B3 in tumor and other rapidly proliferating tissues (lymph nodes) in contrast to normal, nonproliferating tissues”. For the same compound, the “tumor:tissue ratio, lymph nodes” value [5, 6] was 0.7, the “tumor:tissue ratio, muscle” value [5, 6] was 1.5-2.0 and the “tumor:tissue ratio, skin” value [5, 6] was 3.1-3.9.
